Active and inactive are the calls of the source. The rule behind the calls is not given here. Where a SMILES comes first, the peptide text is derived from it.
How the values were obtained:
[1] = molecular target: T1, Orexin/Hypocretin receptor type 1 (Homo sapiens) (UniProt O43613); test: Agonist activity at human OX1 receptor overexpressed in CHO-RD-HGA16 cells assessed as calcium mobilization at 10 uM after 15 mins by fluorescence assay relative to control; assay type: functional, cell-based
T1 sequence (whole entry): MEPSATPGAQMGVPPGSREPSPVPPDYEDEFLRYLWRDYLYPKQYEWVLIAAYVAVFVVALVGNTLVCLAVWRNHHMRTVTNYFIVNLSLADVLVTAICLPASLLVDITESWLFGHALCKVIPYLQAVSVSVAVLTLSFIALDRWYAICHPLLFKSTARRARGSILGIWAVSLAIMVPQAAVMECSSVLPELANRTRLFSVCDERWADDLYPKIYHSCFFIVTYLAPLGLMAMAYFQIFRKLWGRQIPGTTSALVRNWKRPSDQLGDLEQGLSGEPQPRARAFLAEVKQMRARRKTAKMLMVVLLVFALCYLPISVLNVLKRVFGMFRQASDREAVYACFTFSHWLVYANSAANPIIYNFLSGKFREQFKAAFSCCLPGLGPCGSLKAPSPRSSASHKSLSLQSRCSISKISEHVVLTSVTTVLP

[2] = molecular target: T2, Orexin receptor type 2 (Homo sapiens) (UniProt O43614); test: Agonist activity at human OX2 receptor overexpressed in CHO-RD-HGA16 cells assessed as calcium mobilization at 10 uM after 15 mins by fluorescence assay relative to control; assay type: functional, cell-based
T2 sequence (whole entry): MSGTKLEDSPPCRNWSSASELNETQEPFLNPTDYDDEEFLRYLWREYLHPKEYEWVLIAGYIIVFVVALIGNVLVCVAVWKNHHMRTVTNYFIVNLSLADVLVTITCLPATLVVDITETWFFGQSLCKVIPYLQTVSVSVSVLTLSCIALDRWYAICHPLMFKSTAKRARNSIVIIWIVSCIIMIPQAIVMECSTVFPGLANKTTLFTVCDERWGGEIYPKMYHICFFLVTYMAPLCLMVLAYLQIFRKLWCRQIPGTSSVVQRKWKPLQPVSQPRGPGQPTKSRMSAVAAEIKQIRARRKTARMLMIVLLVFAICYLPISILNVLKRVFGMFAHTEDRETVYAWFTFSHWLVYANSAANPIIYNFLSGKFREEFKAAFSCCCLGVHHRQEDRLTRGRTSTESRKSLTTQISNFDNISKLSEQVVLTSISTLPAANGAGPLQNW

| Compound | Calcium response at 10 uM relative to control [1] [%] | Percent activation at 10 uM [2] [%] | Activity [2] |
| --- | --- | --- | --- |
| CC[C@H](C)[C@H](NC(=O)CNC(=O)[C@H](C)NC(=O)[C@H](C)NC(=O)[C@H](Cc1cnc[nH]1)NC(=O)[C@H](CC(N)=O)NC(=O)CNC(=O)[C@H](C)NC(=O)CNC(=O)[C@H](Cc1cnc[nH]1)NC(=O)[C@H](CC(C)C)NC(=O)[C@H](CC(C)C)NC(=O)[C@H](CCC(=O)O)NC(=O)[C@@H](N)Cc1ccc(O)cc1)C(=O)N[C@@H](CC(C)C)C(=O)N[C@@H](C)C(=O)N[C@@H](CC(C)C)C(N)=O (H-YELLHGAGNHAAGILAL-NH2) | < 50 | < 50 | – |
| CC[C@H](C)[C@H](NC(=O)CNC(=O)[C@H](C)NC(=O)[C@H](C)NC(=O)[C@H](Cc1cnc[nH]1)NC(=O)[C@H](CC(N)=O)NC(=O)CNC(=O)[C@H](C)NC(=O)CNC(=O)[C@H](Cc1cnc[nH]1)NC(=O)[C@H](CC(C)C)NC(=O)[C@H](CC(C)C)NC(=O)[C@H](CCC(=O)O)NC(=O)[C@@H](N)Cc1ccc(O)cc1)C(=O)N[C@@H](CC(C)C)C(=O)N[C@H](C(=O)N[C@@H](C)C(N)=O)[C@@H](C)O (H-YELLHGAGNHAAGILTA-NH2) | < 50 | – | inactive |

Source: ChEMBL document CHEMBL3102805, “Truncated Orexin Peptides: Structure-Activity Relationship Studies” (ACS Med Chem Lett, 2013)
